In one test the test system is c-Jun phosphorylation. Put plainly: Western blot of anisomycin-stimulated phosphorylation in HEK293-IL1R cells. The test is classed as cell-based. On the procedure: FIGS. 16A and 16B depict Western blot results. […] Cell lysates were prepared, resolved by SDS-PAGE, and p-c-Jun (Ser63) and p-JNK were monitored by Western blot.
HEK-293 cells stably expressing Interleukin Receptor 1 (HEK293-IL1R) were cultured in Dulbecco's Modified Eagle's medium (DMEM) supplemented with 10% FBS, 2 mM glutamine and 1× antimycotic/antibiotic solution. Cells were serum starved for 18 h before incubation with DMSO or different inhibitors, stimulated with 2 μM anisomycin (Sigma) for 1 h, and lysates were clarified by centrifugation for 10 min at 16000 g and 4° C.
Rabbit polyclonal antibodies against total pan JNK isoforms ((#9252), phospho-pan JNK isoforms (Thr183/Tyr185), (#4668), total p38 (#9212) or phospho-p38 MAPK (Thr180/Tyr182), (4631 resp.), total c-Jun (#9165), phospho-c-Jun (Ser63) (#9261), and phospho-MSK1 (Ser376) (#9591) were from Cell Signalling technology.
Cell lysates (30 μg) were resolved by electrophoresis on SDS polyacrylamide gels (10%) or Novex 4-12% gradient gels, and electroblotted to nitrocellulose membranes. Membranes were blocked with 5% skimmed milk (w/v) in 50 mM Tris/HCl (pH 7.5) 0.15 M NaCl, and 0.1% (v/v) Tween (TBST Buffer). Primary antibodies were used at a concentration of 1 μg/ml, diluted in 5% skimmed milk in TBST, and incubated overnight at 4° C. […]
A general note: Immunoblotting shows a protein as a band on a membrane.

The target of the next test is AKT2 (Homo sapiens, UniProt P31751). Kind of test: AKT2 follow-up enzymatic assay. The settings on record: follow-up enzymatic assay (FIG. 12). The test is classed as biochemical. An excerpt: This high in vitro selectivity however differed markedly from the large number of targets detected by KiNativ.

Molecules are shown by their SMILES.

The results in this text go back to US10144730B2, “Inhibitors of c-Jun-N-terminal kinase (JNK)” (Dana-Farber Cancer Institute, Inc., priority 2011, dated 2018).

In general, IC50 refers to the midpoint of a concentration-inhibition curve. Lower therefore signals inhibition by little substance.

Sequence of AKT2 (P31751 whole entry, species assumed): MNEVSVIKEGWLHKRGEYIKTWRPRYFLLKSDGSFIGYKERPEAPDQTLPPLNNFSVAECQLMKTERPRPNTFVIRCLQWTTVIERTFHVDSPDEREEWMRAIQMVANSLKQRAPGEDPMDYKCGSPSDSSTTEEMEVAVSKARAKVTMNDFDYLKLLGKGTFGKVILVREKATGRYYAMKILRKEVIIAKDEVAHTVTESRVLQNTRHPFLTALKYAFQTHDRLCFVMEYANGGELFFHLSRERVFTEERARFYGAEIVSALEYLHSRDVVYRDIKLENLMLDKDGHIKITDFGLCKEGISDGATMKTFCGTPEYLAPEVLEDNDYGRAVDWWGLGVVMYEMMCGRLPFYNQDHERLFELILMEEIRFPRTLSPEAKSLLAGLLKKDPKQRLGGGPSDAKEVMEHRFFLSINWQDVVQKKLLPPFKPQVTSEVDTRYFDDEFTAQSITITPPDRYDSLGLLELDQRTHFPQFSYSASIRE

With `Cc1cc(NC(=O)c2cccc(NC(=O)/C=C/CN(C)C)c2)ccc1Nc1nccc(-c2cccnc2)n1` [JNK-IN-8], the “time for inhibition of JNK in cells to reach completion” value with c-Jun phosphorylation (HEK293-ILR1 cells (FIGS. 16A and 16B)) is “approximately 3 hours”. Besides, in the test on c-Jun phosphorylation (HEK293-ILR1 cells, three hours treatment then washout), the “reversal of inhibition of c-Jun phosphorylation after removal of inhibitor (washout)” value was “not reversed”.

`CN(C)C/C=C/C(=O)Nc1cccc(C(=O)Nc2ccc(Nc3nccc(/C(C#N)=C4\Nc5ccccc5S4)n3)cc2)c1` [JNK-IN-12] showed an IC50 against AKT2 of 89.9 nM.
